Consider 26 molecules from ChEMBL document CHEMBL5584283, “Evaluation of Antibacterial Functionalized Dihydropyrimidine Photoaffinity Probes Toward Mechanism of Action Studies” (ACS Med Chem Lett, 2024).

The subject of data set [1] is Erythrocyte. Kind of data set: Hemolytic activity in sheep RBC assessed as hemolysis incubated for 1 hr by absorbance based analysis. It counts as toxicity, cell-based, Ovis aries.
Data set [2] concerns Staphylococcus aureus. As to the kind of experiment: Antibacterial activity against Staphylococcus aureus ATCC 33591 assessed as partial growth inhibition at high concentration measured after 18 hrs by two-fold serial dilution method relative to control. It counts as functional.
Data set [3] relates to Staphylococcus aureus. Kind of data set: Antibacterial activity against Staphylococcus aureus ATCC 12600 assessed as partial growth inhibition at high concentration measured after 18 hrs by two-fold serial dilution method relative to control. It counts as functional.
Data set [4] has as its system Staphylococcus aureus. Kind of data set: Antibacterial activity against Staphylococcus aureus ATCC 12600 assessed as reduction in bacterial growth measured after 18 hrs by two-fold serial dilution method. It counts as functional.
In data set [5] the test system is Staphylococcus aureus. As to the kind of experiment: Antibacterial activity against Staphylococcus aureus ATCC 43300 assessed as reduction in bacterial growth measured after 18 hrs by two-fold serial dilution method. In kind it is functional.
The subject of data set [6] is Staphylococcus aureus. Kind of data set: Antibacterial activity against Staphylococcus aureus ATCC 43300 assessed as partial growth inhibition at high concentration measured after 18 hrs by two-fold serial dilution method relative to control. In kind it is functional.
In data set [7] the test system is Staphylococcus aureus. Kind of data set: Antibacterial activity against Staphylococcus aureus ATCC 33591 assessed as reduction in bacterial growth measured after 18 hrs by two-fold serial dilution method. It counts as functional.

Values after ≈ are worked out from the molar mass of the structure shown. Where only a bound is given, the exact number is not on record here.

Take `CCOC(=O)C1=C(c2cccc(F)c2)NC(N)=NC1c1ccc(CC(C)C)cc1` (configuration not stated): the HC20 in data set [1] was over 64 µg/mL.

`CCOC(=O)C1=C(c2ccccc2)NC(N)=NC1c1ccc(C)c(C)c1` (configuration not stated): the “growth inhibition (GI)” value in data set [2] and in data set [3] was over 95% in each case.

With `CCOC(=O)C1=C(c2cccc(F)c2)NC(N)=NC1c1cc(Cl)cc(Cl)c1` (configuration not stated), in data set [1], the HC20 was over 64 µg/mL.

Take `CCOC(=O)C1=C(CC)NC(N)=NC1c1ccc(-c2ccccc2)cc1` (configuration not stated): the MIC in data set [4] and in data set [5] was 4 µg/mL (≈ 11.4 µM) in each case. The “growth inhibition (GI)” value in data set [6] and in data set [3] was over 95% throughout.

Take `CCOC(=O)C1=C(c2ccccc2)NC(N)=NC1c1cccc([N+](=O)[O-])c1` (configuration not stated): the “growth inhibition (GI)” value in data set [2] and in data set [6] was over 95% each time.

Regarding `CCOC(=O)C1=C(c2cccc(C(F)(F)F)c2)NC(N)=NC1c1ccc(CC(C)C)cc1` (configuration not stated), the HC20 in data set [1] was found to be 64 µg/mL.

For the molecule `CCOC(=O)C1=C(c2ccccc2)NC(N)=NC1c1c(C)cccc1C` (configuration not stated), the MIC in data set [4] and in data set [5] was 32 µg/mL (≈ 91.6 µM) each time. Moreover, the “growth inhibition (GI)” value in data set [6] and in data set [3] was over 95% each time.

With `CCOC(=O)C1=C(c2ccccc2)NC(N)=NC1c1ccc(C(C)C)cc1` (configuration not stated), the HC20 in data set [1] is over 64 µg/mL. The “growth inhibition (GI)” value in data set [2], in data set [6] and in data set [3] was over 95% each time.

Consider `CCOC(=O)C1=C(c2ccccc2)NC(N)=NC1c1ccc(F)cc1` (configuration not stated), for which the MIC in data set [7], in data set [4] and in data set [5] was 64 µg/mL (≈ 189 µM) each time. The “growth inhibition (GI)” value in data set [2], in data set [6] and in data set [3] was over 95% each time.

Regarding `CCOC(=O)C1=C(c2ccccc2)NC(N)=NC1c1ccccc1C` (configuration not stated), the MIC in data set [7], in data set [4] and in data set [5] was 64 µg/mL (≈ 191 µM) in each case. Moreover, the “growth inhibition (GI)” value in data set [2], in data set [6] and in data set [3] was over 95% each time.

In the case of `CCOC(=O)C1=C(c2ccccc2)NC(N)=NC1c1cccc(C)c1` (configuration not stated), the MIC in data set [7], in data set [4] and in data set [5] was 64 µg/mL (≈ 191 µM) throughout. In addition, the “growth inhibition (GI)” value in data set [2], in data set [6] and in data set [3] was over 95% in each case.

As to `COc1cc(Cc2cnc(N)nc2N)cc(OC)c1OC` [TRIMETHOPRIM], the values for the MIC in data set [7], in data set [4] and in data set [5] were 8 µg/mL (≈ 27.6 µM), 32 µg/mL (≈ 110 µM) and 8 µg/mL (≈ 27.6 µM), respectively. Moreover, the “growth inhibition (GI)” value in data set [2], in data set [6] and in data set [3] was over 95% each time.

With `CCOC(=O)C1=C(c2ccccc2)NC(N)=NC1c1ccc(OC)cc1` (configuration not stated), in data set [1], the HC20 is over 64 µg/mL. In addition, the MIC (commonly the lowest concentration that inhibits growth of the organism) in data set [4] was 64 µg/mL (≈ 182 µM). For the same molecule, in data set [3], the “growth inhibition (GI)” value is recorded as over 95%.

Turning to `CCOC(=O)C1=C(c2ccccc2)NC(N)=NC1c1cccc(F)c1` (configuration not stated), the MIC in data set [7], in data set [4] and in data set [5] was 64 µg/mL (≈ 189 µM) in each case. Besides, the “growth inhibition (GI)” value in data set [2], in data set [6] and in data set [3] was over 95% each time.

As for `CCOC(=O)C1=C(c2ccccc2)NC(N)=NC1c1ccccc1` (configuration not stated), in data set [1], the HC20 was over 64 µg/mL.

For the molecule GENTAMICIN, the MIC in data set [7] turned out to be 4 µg/mL; in data set [4] it was 4 µg/mL; in data set [5], 128 µg/mL.

On to `CCOC(=O)C1=C(c2ccccc2)NC(N)=NC1c1cccc(Cl)c1` (configuration not stated), for which the HC20 in data set [1] was over 64 µg/mL.

As to `CCOC(=O)C1=C(c2ccccc2)NC(N)=NC1c1ccc(CC(C)C)cc1` (configuration not stated), the HC20 in data set [1] is over 64 µg/mL. Besides, in data set [2], the “growth inhibition (GI)” value is listed as over 95%.

For the molecule `CCOC(=O)C1=C(c2ccccc2)NC(N)=NC1c1ccccc1OC` (configuration not stated), the HC20 in data set [1] is over 64 µg/mL.

For `CCOC(=O)C1=C(c2ccccc2)NC(N)=NC1c1cc(Cl)cc(Cl)c1` (configuration not stated), the HC20 in data set [1] was over 64 µg/mL. The “growth inhibition (GI)” value in data set [2], in data set [6] and in data set [3] was over 95% in each case.

For `CCOC(=O)C1=C(c2ccccc2)NC(N)=NC1c1ccc(-c2ccccc2)cc1` (configuration not stated), the HC20 in data set [1] was over 64 µg/mL.

`CCOC(=O)C1=C(c2ccccc2)NC(N)=NC1c1ccc(N(C)C)cc1` (configuration not stated): the MIC in data set [7], in data set [4] and in data set [5] was 64 µg/mL (≈ 176 µM) throughout. Also, the “growth inhibition (GI)” value in data set [2], in data set [6] and in data set [3] was over 95% throughout.

Turning to `CCOC(=O)C1=C(c2cccc(C)c2)NC(N)=NC1c1cc(Cl)cc(Cl)c1` (configuration not stated), the HC20 in data set [1] was over 64 µg/mL.

As for `CCOC(=O)C1=C(c2ccccc2)NC(N)=NC1c1ccc(C)cc1C` (configuration not stated), the MIC in data set [7], in data set [4] and in data set [5] was 32 µg/mL (≈ 91.6 µM) each time. Moreover, the “growth inhibition (GI)” value in data set [2], in data set [6] and in data set [3] was over 95% each time.

In the case of `CCOC(=O)C1=C(CC)NC(N)=NC1c1ccc(CC(C)C)cc1` (configuration not stated), in data set [1], the HC20 was over 64 µg/mL. Also, the “growth inhibition (GI)” value in data set [6] and in data set [3] was over 95% in each case.

With `CCOC(=O)C1=C(c2cccc(C(F)(F)F)c2)NC(N)=NC1c1cc(Cl)cc(Cl)c1` (configuration not stated), the HC20 in data set [1] was over 64 µg/mL.
